Reference: patent US4263294A, “Maytansinoids, pharmaceutical compositions thereof and method of use thereof” (Takeda Chemical Industries, Ltd., priority 1978, dated 1981)
In brackets after ≈: the same amount, converted by molar mass.

Legend:
Tetrahymena pyriformis W = assay: Antiprotozoal activity, growth inhibition by serial dilution method; type: cell-based; settings: 28° C., 44 to 48 hours, pH 7.0, serial dilution method
Experimental: Antiprotozoal activity of compound (I) was assayed with Tetrahymena pyriformis W as the test organism and a medium composed of 20 g tryptose-peptone (Difco Co.), 1 g yeast extract, 2 g glucose, 1000 ml distilled water, 10 ml 1 M phosphate buffer (pH 7.0) as the assay medium. The microorganism was incubated at 28° C. for 44 to 48 hours and the growth inhibitory activity of compound (I) was assayed by the serial dilution method.

[1] = tested on: melanoma B-16 tumor cells; assay: Antitumor activity, life span prolongation in mice with intraperitoneally transplanted melanoma B-16 (NCI protocol 1,300); type: in vivo; settings: intraperitoneally once daily for 9 consecutive days
Experimental: Therapeutic tests were carried out in mice according to NCI-protocol 1,300, Cancer Chemother, Reports, Part 3, 1972, Vol. 3, No. 2, in which melanoma B-16 tumor cells had been intraperitoneally transplanted, compound (I) being administered intraperitoneally once daily for 9 consecutive days.

Row | Compound | MIC (Tetrahymena pyriformis W) | Antitumor activities B-16 (T/C%) ([1]; 50 μg/kg) | Antitumor activities B-16 (T/C%) ([1]; 100 μg/kg) | Antitumor activities B-16 (T/C%) ([1]; 200 μg/kg) | Antitumor activities B-16 (T/C%) ([1]; 400 μg/kg)
1 | COc1cc2cc(c1Cl)N(C)C(=O)CC(OC(=O)OC(C)C)C1(C)OC1C(C)C1CC(O)(NC(=O)O1)C(OC)C=CC=C(C)C2 (centres unmarked) [Maytansinol 3-isopropylcarbonate, maytansinol 3-isopropylcarbonate] | 4 to 8 µg/mL (≈ 6.14 to 12.3 µM) | 150% | 171% | 171% | 
2 | COc1cc2cc(c1Cl)N(C)C(=O)CC(OC(=O)Nc1ccccc1)C1(C)OC1C(C)C1CC(O)(NC(=O)O1)C(OC)C=CC=C(C)C2 (centres unmarked) [Maytansinol 3-(N-phenyl)carbamate, maytansinol 3-N-phenylcarbamate] | ≥ 8 µg/mL |  | 123% | 151% | 161%
